Results as given in PubChem BioAssay (NCI).
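Growth conditions: 96-well plates. Treatment: test compound, 48 hours, 5 concentrations. Analysis: linear interpolation between bracketing concentrations; unreached endpoints set to highest concentration. The concentration for 50% growth inhibition is given as GI50. TGI marks complete inhibition of growth.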

How the values were obtained:
Experiment in all cases: NCI tumour cell line growth inhibition, 48 h
P388/ADR leukemia = tested on: P388/ADR leukemia
NCI/ADR-RES ovarian = tested on: NCI/ADR-RES ovarian
HOP-18 NSCLC = tested on: HOP-18 NSCLC
SN12K1 renal = tested on: SN12K1 renal
DMS 273 small cell lung = tested on: DMS 273 small cell lung
P388 leukemia = tested on: P388 leukemia

CC1[C@@H]2[C@@H](C=C3C4CCC5Cc6nc7c(nc6C[C@@]5(C)C4C[C@H](O)[C@]32CO)CC2CCC3C4=C[C@H]5O[C@@]6(O[C@@](C)(CO)C[C@@H]6O)C(C)[C@@]5(O)[C@]4(C)[C@@H](O)CC3[C@]2(C)C7)O[C@]12CCC(C)(C)O2 (some centres not stated)
TGI (P388/ADR leukemia): > 3.65 µM | TGI (NCI/ADR-RES ovarian): > 3.65 µM | GI50 (HOP-18 NSCLC): 2.08 µM | TGI (HOP-18 NSCLC): > 3.65 µM | TGI (SN12K1 renal): > 3.65 µM | GI50 (DMS 273 small cell lung): < 0.000365 µM | TGI (P388 leukemia): > 3.65 µM
